Reference: patent US20210255193A1, “LYSINE REACTIVE PROBES AND USES THEREOF” (The Scripps Research Institute, priority 2017, published 2021)
Values belong to the compound of their own block, whether it stands above or below them.

How the values were obtained:
Assay in all cases: competitive isoTOP-ABPP
Format in all cases: binding
[1] = biological target: T1, FAH Fumarylacetoacetase (Homo sapiens, UniProt P16930); details: for isoTOP-ABPP ratio (R) at liganded lysine P16930_K241: sol, 231
T1 construct: isoTOP-ABPP experiments performed in cell lysates (in vitro); endogenous in cells; host or cells: soluble proteome of human cancer cell lines (MDA-MB-231; Ramos and Jurkat also prepared)
T1 sequence (P16930 1-419): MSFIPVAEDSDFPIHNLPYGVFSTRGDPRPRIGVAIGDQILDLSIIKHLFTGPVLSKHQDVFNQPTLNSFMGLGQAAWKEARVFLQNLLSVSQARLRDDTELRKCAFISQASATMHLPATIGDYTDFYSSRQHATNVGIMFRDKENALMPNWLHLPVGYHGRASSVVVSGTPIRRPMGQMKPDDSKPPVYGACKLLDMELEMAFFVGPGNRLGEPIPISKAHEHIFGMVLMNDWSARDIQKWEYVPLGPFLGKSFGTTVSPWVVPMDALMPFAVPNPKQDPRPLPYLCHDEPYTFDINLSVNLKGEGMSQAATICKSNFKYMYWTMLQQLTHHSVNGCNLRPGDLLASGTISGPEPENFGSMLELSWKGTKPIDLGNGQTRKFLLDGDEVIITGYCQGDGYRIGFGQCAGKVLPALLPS
Summary of the method: (§1)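 Probe: STP-alkyne, 0.1 mM, 1 h RT, after fragment pretreatment of lysate (esters 50 μM; guanidinylators 100 μM). Tags: light = compound, heavy = DMSO, via CuAAC. Replicates averaged if SD <60% of mean; otherwise lowest ratio used when any R <4.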

[2] = biological target: T2, MTOR Serine/threonine-protein kinase mTOR (Homo sapiens, UniProt P42345); details: for isoTOP-ABPP ratio (R) at liganded lysine P42345_K2066: sol, 231
T2 construct: isoTOP-ABPP experiments performed in cell lysates (in vitro); endogenous in cells; host or cells: soluble proteome of human cancer cell lines (MDA-MB-231; Ramos and Jurkat also prepared)
Summary of the method: as §1

[3] = biological target: T3, PFKM 6-phosphofructokinase, muscle type (Homo sapiens, UniProt P08237); details: for isoTOP-ABPP ratio (R) at liganded lysine P08237_K678: sol, 231
T3 construct: isoTOP-ABPP experiments performed in cell lysates (in vitro); endogenous in cells; host or cells: MDA-MB-231 soluble lysate
T3 sequence (P08237 1-780): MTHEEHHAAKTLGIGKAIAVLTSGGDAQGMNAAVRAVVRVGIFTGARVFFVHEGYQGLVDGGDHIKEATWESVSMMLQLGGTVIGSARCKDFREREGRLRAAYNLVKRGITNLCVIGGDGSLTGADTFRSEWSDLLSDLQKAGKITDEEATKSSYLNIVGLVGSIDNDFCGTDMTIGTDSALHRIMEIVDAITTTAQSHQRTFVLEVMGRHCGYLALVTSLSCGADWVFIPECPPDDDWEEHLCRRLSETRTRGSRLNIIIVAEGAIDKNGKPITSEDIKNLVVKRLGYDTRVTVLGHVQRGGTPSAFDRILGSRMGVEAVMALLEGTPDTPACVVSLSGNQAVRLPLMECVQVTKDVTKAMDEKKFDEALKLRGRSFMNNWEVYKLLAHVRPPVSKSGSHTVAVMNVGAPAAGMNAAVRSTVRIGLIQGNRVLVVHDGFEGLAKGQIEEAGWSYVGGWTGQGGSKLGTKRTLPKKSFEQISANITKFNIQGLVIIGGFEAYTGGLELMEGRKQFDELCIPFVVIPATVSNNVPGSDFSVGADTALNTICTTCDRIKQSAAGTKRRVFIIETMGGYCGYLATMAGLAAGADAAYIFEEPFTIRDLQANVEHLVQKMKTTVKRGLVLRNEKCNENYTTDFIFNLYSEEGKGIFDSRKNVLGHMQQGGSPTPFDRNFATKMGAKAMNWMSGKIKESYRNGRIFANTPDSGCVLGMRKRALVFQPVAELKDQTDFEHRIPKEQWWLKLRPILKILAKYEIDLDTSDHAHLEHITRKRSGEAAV
Summary of the method: as §1

isoTOP-ABPP ratio, lysine P16930_K241 ([1]; 50 uM_231_sol_in vitro): 1.2
isoTOP-ABPP ratio, lysine P42345_K2066 ([2]; 50 uM_231_sol_in vitro): 1.1
isoTOP-ABPP ratio, lysine P08237_K678 ([3]; 50 uM_231_sol_in vitro): 0.8
SMILES: O=C(Oc1c(F)c(F)c(C(F)(F)F)c(F)c1F)c1cc(C(F)(F)F)cc(C(F)(F)F)c1 [fragment 47, 2,3,5,6-Tetrafluoro-4-(trifluoromethyl)phenyl 3,5-bis(trifluoromethyl)benzoate]

isoTOP-ABPP reactivity ratio at lysine P16930_K241 ([1]; 50 uM, 231 sol, in vitro): 2.5
isoTOP-ABPP reactivity ratio at lysine P42345_K2066 ([2]; 50 uM, 231 sol, in vitro): 1.0
isoTOP-ABPP reactivity ratio at lysine P08237_K678 ([3]; 50 uM, 231 sol, in vitro): 1.3
SMILES: CCn1cc(C(=O)Oc2c(F)c(F)c(F)c(F)c2F)c(=O)c2ccc(C)nc21 [fragment 28, Pentafluorophenyl 1-ethyl-7-methyl-4-oxo-1,4-dihydro-1,8-naphthyridine-3-carboxylate]

R value (DMSO/fragment) for probe 1 labeling ([1]; P16930_K241, 50 uM, 231 sol, in vitro): 2.5
R value (DMSO/fragment) for probe 1 labeling ([2]; P42345_K2066, 50 uM, 231 sol, in vitro): 0.9
R value (DMSO/fragment) for probe 1 labeling ([3]; P08237_K678, 50 uM, 231 sol, in vitro): 1.0
SMILES: O=C(CCc1cn(-c2ccccc2)nc1-c1ccccc1)Oc1c(F)c(F)c(F)c(F)c1F [fragment 19, Pentafluorophenyl 3-(1,3-diphenyl-1H-pyrazol-4-yl)propanoate]

isoTOP-ABPP ratio, lysine P16930_K241 ([1]; 50 uM_231_sol_in vitro): 2.3
isoTOP-ABPP ratio, lysine P42345_K2066 ([2]; 50 uM_231_sol_in vitro): 1.0
isoTOP-ABPP ratio, lysine P08237_K678 ([3]; 50 uM_231_sol_in vitro): 0.9
SMILES: O=C(Oc1c(F)c(F)cc(F)c1F)c1cc(C(F)(F)F)cc(C(F)(F)F)c1 [fragment 48, 2,3,5,6-Tetrafluorophenyl 3,5-bis(trifluoromethyl)benzoate]

The next lines start with the compound.

SMILES: O=C(CC12CC3CC(CC(C3)C1)C2)Oc1ccc([N+](=O)[O-])cc1[N+](=O)[O-] [fragment 38, 2,4-Dinitrophenyl 2-(adamantan-1-yl)acetate]
isoTOP-ABPP ratio (R) at liganded lysine P16930_K241 ([1]; 50 uM, in vitro): 1.0
isoTOP-ABPP ratio (R) at liganded lysine P42345_K2066 ([2]; 50 uM, in vitro): 1.1
isoTOP-ABPP ratio (R) at liganded lysine P08237_K678 ([3]; 50 uM, in vitro): 1.0

SMILES: CC(C)(C)OC(=O)N=C(NC(=O)OC(C)(C)C)n1cccn1 [fragment 50, reference compound]
isoTOP-ABPP ratio, lysine P16930_K241 ([1]; 100 uM_231_sol_in vitro): 1.5
isoTOP-ABPP ratio, lysine P42345_K2066 ([2]; 100 uM_231_sol_in vitro): 1.4
isoTOP-ABPP ratio, lysine P08237_K678 ([3]; 100 uM_231_sol_in vitro): 20.0

SMILES: O=C(CCc1coc2cc(F)ccc2c1=O)Oc1ccc([N+](=O)[O-])cc1[N+](=O)[O-] [fragment 36, 2,4-Dinitrophenyl 3-(7-fluoro-4-oxo-4H-chromen-3-yl)propanoate]
isoTOP-ABPP ratio (R) at liganded lysine P16930_K241 ([1]; 50 uM, in vitro): 3.6
isoTOP-ABPP ratio (R) at liganded lysine P42345_K2066 ([2]; 50 uM, in vitro): 3.0
isoTOP-ABPP ratio (R) at liganded lysine P08237_K678 ([3]; 50 uM, in vitro): 5.3

SMILES: COC(=O)NC(=NC(=O)OCC1c2ccccc2-c2ccccc21)n1cccn1 [fragment 49, N-Methoxycarbonyl-N′-9-fluorenylmethoxycarbonyl-pyrazole-1-carboxamidine]
isoTOP-ABPP ratio, lysine P16930_K241 ([1]; 100 uM_231_sol_in vitro): 1.3
isoTOP-ABPP ratio, lysine P42345_K2066 ([2]; 100 uM_231_sol_in vitro): 1.0
isoTOP-ABPP ratio, lysine P08237_K678 ([3]; 100 uM_231_sol_in vitro): 5.4
